Laboratory results: ChEMBL document CHEMBL1150740, “Studies on inhibitors of skin-tumor promotion, I. Inhibitory effects of triterpenes from Euptelea polyandra on Epstein-Barr virus activation” (J Nat Prod, 1987)

Experiments:
Type in all cases: cell-based
Raji [1] = experiment: Inhibition of EBV-early antigen activation in human Raji cells assessed as early antigen activation at 1 uM ratio after 48 hrs; set-up: scale not given: the % may be the effect or the level left
Raji [2] = experiment: Inhibition of TPA-induced EBV-early antigen activation in human Raji cells assessed as early antigen activation at 1000 mol ratio after 48 hrs relative to TPA; set-up: scale not given: the % may be the effect or the level left; details: human gammaherpesvirus 4
Raji [3] = experiment: Inhibition of TPA-induced EBV-early antigen activation in human Raji cells assessed as early antigen activation at 5000 mol ratio after 48 hrs relative to TPA; set-up: scale not given: the % may be the effect or the level left; details: human gammaherpesvirus 4
[4] = Cytotoxicity against human Raji cells assessed as cell viability at 1000 mol ratio after 48 hrs relative to TPA; details: read-out: Activity
[5] = Cytotoxicity against human Raji cells assessed as cell viability at 5000 mol ratio after 48 hrs relative to TPA; details: read-out: Activity
[6] = Cytotoxicity against human Raji cells assessed as cell viability at 10 mol ratio after 48 hrs relative to TPA; details: read-out: Activity
[7] = Cytotoxicity against human Raji cells assessed as cell viability at 100 mol ratio after 48 hrs relative to TPA; details: read-out: Activity
Raji [8] = experiment: Inhibition of TPA-induced EBV-early antigen activation in human Raji cells assessed as early antigen activation at 100 mol ratio after 48 hrs relative to TPA; details: human gammaherpesvirus 4
Raji [9] = experiment: Inhibition of TPA-induced EBV-early antigen activation in human Raji cells assessed as early antigen activation at 10 mol ratio after 48 hrs relative to TPA; details: human gammaherpesvirus 4

Row | SMILES | Activity (Raji [1]) | Activity (Raji [2]) | Activity (Raji [3]) | viability at 48 h, 1000 mol ratio relative to TPA [4] | viability at 48 h, 5000 mol ratio relative to TPA [5] | viability at 48 h, 10 mol ratio relative to TPA [6] | viability at 48 h, 100 mol ratio relative to TPA [7] | EBV early antigen activation relative to TPA (Raji [8]) | EBV-EA activation relative to TPA (Raji [9])
1 | C=C(C)[C@@H]1CC[C@]2(C(=O)O)CC[C@]3(C)[C@H](CC[C@@H]4[C@@]5(C)CC[C@H](O)C(C)(C)[C@@H]5CC[C@]43C)[C@@H]12 [BETULINIC ACID] | 0% | 80% | 0% | > 80% | 20% | 100% | 100% | 100% | 
2 | CC(=O)O[C@H]1CC[C@]2(C)[C@H]3CC=C4[C@@H]5CC(C)(C)CC[C@]5(C(=O)O)CC[C@@]4(C)[C@]3(C)CC[C@H]2C1(C)C [ACETYL OLEANOLIC ACID] | 1.6% | 36.4% | 0% | 80% | 50% | 100% | 100% | 100% | 100%
3 | CC(=O)O[C@@H]1C[C@]2(C)[C@H]3CC=C4[C@@H]5CC(C)(C)CC[C@]5(C(=O)O)CC[C@@]4(C)[C@]3(C)CC[C@H]2C(C)(C)[C@H]1OC(C)=O | 0% | 0% | 0% | 20% | 0% | 100% | 70% | 59.6% | 100%
4 | C=C(C)[C@@H]1CC[C@]2(CO)CC[C@]3(C)[C@H](CC[C@@H]4[C@@]5(C)CC[C@H](O)C(C)(C)[C@@H]5CC[C@]43C)[C@@H]12 [BETULIN] | 1.6% | 100% | 0% | 100% | 80% | 100% | 100% | 100% | 100%
5 | COC(=O)[C@]12CCC(C)(C)C[C@H]1C1=CC[C@@H]3[C@@]4(C)CC[C@H](O)C(C)(C)[C@@H]4CC[C@@]3(C)[C@]1(C)CC2 [METHYL OLEANOLATE] | 0% | 29.5% | 0% | 50% | 0% | 100% | 80% | 46.3% | 100%
6 | CC(=O)O[C@H]1CC[C@]2(C)[C@H]3CC=C4[C@@H]5CC(C)(C)CC[C@]5(C=O)CC[C@@]4(C)[C@]3(C)CC[C@H]2C1(C)C | 0% | 100% | 0% | 100% | 40% | 100% | 100% | 100% | 100%
7 | C=C(C)[C@@H]1CC[C@]2(C)CC[C@]3(C)[C@H](CC[C@@H]4[C@@]5(C)CC[C@H](OC(C)=O)C(C)(C)[C@@H]5CC[C@]43C)[C@@H]12 [LUPENYL ACETATE] | 0% | 81.8% | 0% | 80% | 60% | 100% | 100% | 100% | 100%
8 | CC1(C)CC[C@]2(C(=O)O)CC[C@]3(C)C(=CC[C@@H]4[C@@]5(C)CC[C@H](O)C(C)(C)[C@@H]5CC[C@]43C)[C@@H]2C1 [OLEANOLIC_ACID] | 2.3% | 30% | 0% | 60% | 20% | 100% | > 80% | 80% | 100%
9 | CC1(C)CC[C@]2(C)CC[C@]3(C)C(=CC[C@@H]4[C@@]5(C)C(=O)CC(=O)C(C)(C)[C@@H]5CC[C@]43C)[C@@H]2C1 | 0% | 0% | 0% | 20% | 0% | 100% | 100% | 100% | 100%
10 | C=C(C)[C@@H]1CC[C@]2(C(=O)O)CC[C@]3(C)[C@H](CC[C@@H]4[C@@]5(C)CC[C@H](OC(C)=O)C(C)(C)[C@@H]5CC[C@]43C)[C@@H]12 | 0% | 0% | 0% | 80% | 80% | 100% | 80% | 55.1% | 100%
11 | CC(=O)OC[C@]12CCC(C)(C)C[C@H]1C1=CC[C@@H]3[C@@]4(C)CC[C@H](OC(C)=O)C(C)(C)[C@@H]4CC[C@@]3(C)[C@]1(C)CC2 | 0% | 100% | 0% | 100% | 50% | 100% | 100% | 100% | 100%
12 | CC(=O)O[C@H]1CC[C@]2(C)[C@H]3CC=C4[C@@H]5CC(C)(C)CC[C@]5(CO)CC[C@@]4(C)[C@]3(C)CC[C@H]2C1(C)C | 0% | 32.3% | 0% | 70% | 40% | 100% | > 80% | 59.4% | 100%
13 | C=C(C)[C@@H]1CC[C@]2(C(=O)OC)CC[C@]3(C)[C@H](CC[C@@H]4[C@@]5(C)CC[C@H](O)C(C)(C)[C@@H]5CC[C@]43C)[C@@H]12 [METHYL BETULINATE] | 0% | 71.5% | 0% | > 80% | 80% | 100% | 100% | 100% | 100%
14 | CC1(C)CC[C@]2(C(=O)O)CC[C@]3(C)C(=CC[C@@H]4[C@@]5(C)C[C@@H](O)[C@H](O)C(C)(C)[C@@H]5CC[C@]43C)[C@@H]2C1 [MASLINIC ACID] | 0% | 0% | 0% | 0% | 0% | 100% | 70% | 65.6% | 100%
15 | CC1(C)CC[C@]2(CO)CC[C@]3(C)C(=CC[C@@H]4[C@@]5(C)CC[C@H](O)C(C)(C)[C@@H]5CC[C@]43C)[C@@H]2C1 [ERYTHRODIOL] | 0% | 19.3% | 0% | 50% | 10% | 100% | > 80% | 71.7% | 100%
16 | COC(=O)[C@]12CCC(C)(C)C[C@H]1C1=CC[C@@H]3[C@@]4(C)C[C@@H](O)[C@H](O)C(C)(C)[C@@H]4CC[C@@]3(C)[C@]1(C)CC2 [MASLINIC ACID METHYL ESTER] | 0% | 65.6% | 0% | 80% | 0% | 100% | 100% | 100% | 100%
